Columns and labels:
[1] = tested on: HL-60(TB); experiment: NCI-60 SRB screen: leukemia HL-60(TB); format: cell-based; details: Homo sapiens, 48 h, HL-60(TB)
[2] = tested on: SR; experiment: NCI-60 SRB screen: leukemia SR; format: cell-based; details: Homo sapiens, 48 h
[3] = tested on: A549/ATCC; experiment: NCI-60 SRB screen: non-small cell lung cancer A549/ATCC; format: cell-based, human; details: A549/ATCC
[4] = tested on: NCI-H322M; experiment: NCI-60 SRB screen: non-small cell lung cancer NCI-H322M; format: cell-based, human
[5] = tested on: NCI-H460; experiment: NCI-60 SRB screen: non-small cell lung cancer NCI-H460; format: cell-based; details: Homo sapiens, 48 h, NCI-H460
[6] = tested on: COLO 205; experiment: NCI-60 SRB screen: colon cancer COLO 205; format: cell-based, human; details: COLO 205
[7] = tested on: HCT-15; experiment: NCI-60 SRB screen: colon cancer HCT-15; format: cell-based, human; details: HCT-15
[8] = tested on: HT29; experiment: NCI-60 SRB screen: colon cancer HT29; format: cell-based; details: Homo sapiens, HT29
[9] = tested on: KM12; experiment: NCI-60 SRB screen: colon cancer KM12; format: cell-based, human; details: KM12
[10] = tested on: SF-268; experiment: NCI-60 SRB screen: CNS cancer SF-268; format: cell-based, human; details: SF-268
[11] = tested on: SF-295; experiment: NCI-60 SRB screen: CNS cancer SF-295; format: cell-based, human; details: SF-295
[12] = tested on: SF-539; experiment: NCI-60 SRB screen: CNS cancer SF-539; format: cell-based, human; details: SF-539
[13] = tested on: SNB-19; experiment: NCI-60 SRB screen: CNS cancer SNB-19; format: cell-based, human; details: SNB-19
[14] = tested on: LOX IMVI; experiment: NCI-60 SRB screen: melanoma LOX IMVI; format: cell-based, human
[15] = tested on: MALME-3M; experiment: NCI-60 SRB screen: melanoma MALME-3M; format: cell-based, human; details: MALME-3M
[16] = tested on: M14; experiment: NCI-60 SRB screen: melanoma M14; format: cell-based, human; details: M14
[17] = tested on: SK-MEL-2; experiment: NCI-60 SRB screen: melanoma SK-MEL-2; format: cell-based, human; details: SK-MEL-2
[18] = tested on: UACC-257; experiment: NCI-60 SRB screen: melanoma UACC-257; format: cell-based, human; details: UACC-257
[19] = tested on: UACC-62; experiment: NCI-60 SRB screen: melanoma UACC-62; format: cell-based, human; details: UACC-62
[20] = tested on: IGROV1; experiment: NCI-60 SRB screen: ovarian cancer IGROV1; format: cell-based, human; details: IGROV1
[21] = tested on: OVCAR-8; experiment: NCI-60 SRB screen: ovarian cancer OVCAR-8; format: cell-based, human; details: OVCAR-8
[22] = tested on: SK-OV-3; experiment: NCI-60 SRB screen: ovarian cancer SK-OV-3; format: cell-based, human; details: SK-OV-3
[23] = tested on: ACHN; experiment: NCI-60 SRB screen: renal cancer ACHN; format: cell-based, human
[24] = tested on: CAKI-1; experiment: NCI-60 SRB screen: renal cancer CAKI-1; format: cell-based, human; details: CAKI-1
[25] = tested on: RXF 393; experiment: NCI-60 SRB screen: renal cancer RXF 393; format: cell-based, human; details: RXF 393
[26] = tested on: TK-10; experiment: NCI-60 SRB screen: renal cancer TK-10; format: cell-based, human; details: TK-10
[27] = tested on: UO-31; experiment: NCI-60 SRB screen: renal cancer UO-31; format: cell-based, human; details: UO-31
[28] = tested on: MCF7; experiment: NCI-60 SRB screen: breast cancer MCF7; format: cell-based; details: Homo sapiens, 48 h, MCF7
[29] = tested on: HS 578T; experiment: NCI-60 SRB screen: breast cancer HS 578T; format: cell-based, human; details: HS 578T
[30] = tested on: BT-549; experiment: NCI-60 SRB screen: breast cancer BT-549; format: cell-based, human; details: BT-549
[31] = tested on: MDA-MB-468; experiment: NCI-60 SRB screen: breast cancer MDA-MB-468; format: cell-based, human
[32] = tested on: 60 human tumor cell lines; details: single dose 10 µM
[33] = tested on: CNS cancer subpanel; experiment: NCI-60 screen, subpanel CNS cancer
[34] = tested on: NSCL cancer subpanel; experiment: NCI-60 screen, subpanel NSCL cancer
[35] = tested on: Colon Cancer subpanel; experiment: NCI-60 screen, subpanel Colon Cancer
[36] = tested on: Renal Cancer subpanel; experiment: NCI-60 screen, subpanel Renal Cancer
[37] = tested on: Breast cancer subpanel; experiment: NCI-60 screen, subpanel Breast cancer
[38] = single dose 10 µM, read-out: Percentage Cell Growth
[39] = five concentrations, SRB, read-out: GI50
[40] = Homo sapiens, five concentrations, 48 h, SRB, read-out: GI50

C=C(C)[C@@H]1CC[C@]2(C(=O)NCCNCCNCCN)CC[C@]3(C)[C@H](CC[C@@H]4[C@@]5(C)CCC(=O)C(C)(C)[C@@H]5CC[C@]43C)[C@@H]12 [Compound 11]
activity at 10 µM [1, 38]: -35.6% | GI50 [1, 39]: 8.88 µM | activity at 10 µM [2, 38]: 4.96% | GI50 [2, 39]: 5.91 µM | Percentage Cell Growth ([3]; single dose 10 µM): −76.50% | GI50 [3, 40]: 7.69 µM | GI50 [4, 40]: 7.32 µM | Percentage Cell Growth ([4]; single dose 10 µM): −81.08% | activity at 10 µM [5, 38]: -90.9% | GI50 [5, 39]: 9.4 µM | Percentage Cell Growth ([6]; single dose 10 µM): −47.48% | GI50 [6, 40]: 8.74 µM | Percentage Cell Growth ([7]; single dose 10 µM): −36.56% | GI50 [7, 40]: 7.65 µM | activity at 10 µM ([8]; HT-29, 48 h, single dose 10 µM, read-out: Percentage Cell Growth): -77.4% | GI50 ([8]; HT-29, five concentrations, 48 h, SRB, read-out: GI50): 7.17 µM | GI50 [9, 40]: 8.47 µM | Percentage Cell Growth ([9]; single dose 10 µM): −81.93% | GI50 [10, 40]: 7.53 µM | Percentage Cell Growth ([10]; single dose 10 µM): −38.68% | GI50 [11, 40]: 9.42 µM | Percentage Cell Growth ([11]; single dose 10 µM): −54.47% | GI50 [12, 40]: 7.53 µM | Percentage Cell Growth ([12]; single dose 10 µM): −92.71% | GI50 [13, 40]: 8.5 µM | Percentage Cell Growth ([13]; single dose 10 µM): −78.54% | GI50 [14, 40]: 8.72 µM | Percentage Cell Growth ([14]; single dose 10 µM): −68.23% | GI50 [15, 40]: 7.4 µM | Percentage Cell Growth ([15]; single dose 10 µM): −72.82% | GI50 [16, 40]: 8.38 µM | Percentage Cell Growth ([16]; single dose 10 µM): −62.82% | GI50 [17, 40]: > 50 µM | Percentage Cell Growth ([17]; single dose 10 µM): 56.36% | GI50 [18, 40]: 7.91 µM | Percentage Cell Growth ([18]; single dose 10 µM): −10.66% | GI50 [19, 40]: 8.96 µM | Percentage Cell Growth ([19]; single dose 10 µM): −77.94% | GI50 ([20]; Homo sapiens, IGROV-1, five concentrations, 48 h, SRB, read-out: GI50): 6.42 µM | Percentage Cell Growth ([20]; single dose 10 µM): −84.81% | GI50 [21, 40]: 8.41 µM | Percentage Cell Growth ([21]; single dose 10 µM): −75.03% | GI50 [22, 40]: 10.6 µM | Percentage Cell Growth ([22]; single dose 10 µM): 70.49% | GI50 [23, 40]: 13.8 µM | Percentage Cell Growth ([23]; single dose 10 µM): −83.29% | Percentage Cell Growth ([24]; single dose 10 µM): −8.79% | GI50 [24, 40]: 5.87 µM | GI50 [25, 40]: 5.6 µM | Percentage Cell Growth ([25]; single dose 10 µM): −71.88% | GI50 [26, 40]: 10.1 µM | Percentage Cell Growth ([26]; single dose 10 µM): −77.68% | GI50 [27, 40]: 6.85 µM | Percentage Cell Growth ([27]; single dose 10 µM): −96.35% | activity at 10 µM [28, 38]: -58% | GI50 [28, 39]: 7.38 µM | Percentage Cell Growth ([29]; single dose 10 µM): 47.76% | GI50 [29, 40]: 8.3 µM | Percentage Cell Growth ([30]; single dose 10 µM): 58.31% | GI50 [30, 40]: 8.91 µM | GI50 [31, 40]: 8.09 µM | Percentage Cell Growth ([31]; single dose 10 µM): −49.06% | cancer cell lethality, range of percentage growth ([32]; cell lines with negative growth): −4.36% to −96.35% | cases of cancer cell lethality ([32]; number of cell lines): 50 | MID b, average sensitivity of all cell line of particular subpanel [33]: 7.76 µM | Selectivity, ratio MID a: MID b [33]: 1.18 | MID b, average sensitivity of all cell line of particular subpanel [34]: 7.58 µM | Selectivity, ratio MID a: MID b [34]: 1.21 | MID b, average sensitivity of all cell line of particular subpanel [35]: 7.68 µM | Selectivity, ratio MID a: MID b [35]: 1.19 | MID b, average sensitivity of all cell line of particular subpanel [36]: 12.52 µM | Selectivity, ratio MID a: MID b [36]: 0.73 | MID b, average sensitivity of all cell line of particular subpanel [37]: 8.04 µM | Selectivity, ratio MID a: MID b [37]: 1.14

Source: publication PMC7587962, “Evaluation of Cytotoxicity and α-Glucosidase Inhibitory Activity of Amide and Polyamino-Derivatives of Lupane Triterpenoids” (Molecules, 2020)
